Source: the supplement of paper PMC7394473

Experiments:
Conditions in all cases: 72 h
U2OS [1] = assay: fractional viability (live cells / total cells); higher = less cell death
Protocol: (§1)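 U2OS::Nuc-mKate2 cells seeded in 96-well plates and treated with eight- to ten-point half-log or log dilutions of drug in the presence of 50 nM SYTOX Green. Live (mKate2+) and dead (SYTOX+) cells were counted by IncuCyte STACK live-cell microscopy at 72 h; biological triplicates. GR is the normalised growth-rate inhibition value (Hafner 2016; 1 = untreated growth, <0 = population shrinking). FV is live/(live+dead) cells, not normalised.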

U2OS [2] = assay: normalized growth rate inhibition value (GR) relative to untreated cells (GR value (dimensionless, 1 = untreated growth)); higher = less growth inhibition
Protocol: as §1

U2OS [3] = assay: GRmin (fitted minimal GR value at highest effect) (GR value (dimensionless)); higher = less efficacious
Protocol: (§2)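 U2OS cells treated with full dose titrations of drug; live and dead cells counted by STACK microscopy (mKate2 nuclei, SYTOX Green) at 72 h, biological triplicates. GR and FV dose responses were fitted with 4-parameter logistic models (GR lower bound -1). GRADE (0-100) is the rescaled angle of a linear fit of FV versus GR at doses with GR >= 0, giving the percentage of the response due to cell death.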

U2OS [4] = assay: drug GRADE (percent of response due to cell death) (% (0-100)); higher = more death-driven response
Protocol: as §2

U2OS [5] = assay: GR50 (concentration giving GR = 0.5)
Protocol: as §2

CC1CCc2cc(F)cc3c(=O)c(C(=O)O)cn1c23 (stereo unspecified) [Flumequine]
Conditions	fractional viability, U2OS [1]	normalized growth rate inhibition value, U2OS [2]
0.01 µM	0.98	0.959
0.0316 µM	0.971	1.02
0.1 µM	0.981	0.966
0.316 µM	0.977	0.928
1 µM	0.971	0.907
3.16 µM	0.974	0.962
10 µM	0.977	1.1
31.6 µM	0.976	0.969

Conditions	GRmin
U2OS [3]	1

O=C(O)CCNc1cc(N2CCc3ccccc3CC2)nc(-c2ccccn2)n1 [GSKJ1]
Conditions	fractional viability, U2OS [1]	normalized growth rate inhibition value, U2OS [2]
0.01 µM	0.979	1.03
0.0316 µM	0.981	0.985
0.1 µM	0.98	0.962
0.316 µM	0.976	1.06
1 µM	0.985	1.02
3.16 µM	0.974	0.996
10 µM	0.975	1.01
31.6 µM	0.974	0.83

Conditions	GRmin
U2OS [3]	0.339

C=CCc1ccc(O)c(-c2ccc(O)c(CC=C)c2)c1 [Honokiol]
Conditions	fractional viability, U2OS [1]	normalized growth rate inhibition value, U2OS [2]
0.01 µM	0.978	1.04
0.0316 µM	0.974	1.07
0.1 µM	0.978	0.96
0.316 µM	0.983	1.03
1 µM	0.978	0.897
3.16 µM	0.979	0.981
10 µM	0.981	0.95
31.6 µM	0.969	0.774

CC(C)n1nc(-c2ccc3oc(N)nc3c2)c2c(N)ncnc21 [INK-128]
Conditions	fractional viability, U2OS [1]	normalized growth rate inhibition value, U2OS [2]
0.000318058 µM	0.987	0.831
0.00100506 µM	0.989	0.849
0.003176 µM	0.989	0.896
0.0100362 µM	0.987	0.726
0.0317143 µM	0.982	0.484
0.100217 µM	0.965	0.226
0.316686 µM	0.95	0.223
1.00073 µM	0.915	0.0973
3.1623 µM	0.855	-0.0193

Conditions	GR50 [µM]	GRmin	drug GRADE
U2OS [3]	–	0.0247	–
U2OS [4]	–	–	10.9
U2OS [5]	0.0318	–	–

CC(C)NC[C@@H](C(=O)N1CCN(c2ncnc3c2[C@H](C)C[C@H]3O)CC1)c1ccc(Cl)cc1 [Ipatasertib]
Conditions	fractional viability, U2OS [1]	normalized growth rate inhibition value, U2OS [2]
0.00100578 µM	0.99	0.9
0.00317827 µM	0.986	0.946
0.0100433 µM	0.986	1.14
0.0317369 µM	0.983	0.981
0.100289 µM	0.986	0.885
0.316912 µM	0.988	0.945
1.00144 µM	0.987	0.88
3.16456 µM	0.976	0.824
10 µM	0.947	0.548

Conditions	drug GRADE
U2OS [4]	6.49

CC1(C)CCC(c2ccc(Cl)cc2)=C(CN2CCN(c3ccc(C(=O)NS(=O)(=O)c4ccc(N[C@H](CCN5CCOCC5)CSc5ccccc5)c(S(=O)(=O)C(F)(F)F)c4)cc3)CC2)C1 [Navitoclax]
Conditions	fractional viability, U2OS [1]	normalized growth rate inhibition value, U2OS [2]
0.01 µM	0.98	0.981
0.0316 µM	0.983	1.04
0.1 µM	0.978	0.941
0.316 µM	0.978	1.02
1 µM	0.978	0.95
3.16 µM	0.972	0.94
10 µM	0.947	0.841
31.6 µM	0.887	0.891

Conditions	GRmin
U2OS [3]	0.866

CO[C@@H]1C[C@@H](C[C@H]2CC[C@H](C)[C@H]([C@@H](C)C(=O)O)O2)O[C@]2(O[C@](C)([C@H]3CC[C@@](C)([C@@H]4O[C@@H]([C@H]5O[C@@](O)(CO)[C@H](C)C[C@@H]5C)C[C@@H]4C)O3)C[C@H]2C)[C@@H]1C [Nigericin]
Conditions	fractional viability, U2OS [1]	normalized growth rate inhibition value, U2OS [2]
0.01 µM	0.963	0.857
0.0316 µM	0.957	0.78
0.1 µM	0.903	0.777
0.316 µM	0.829	0.484
1 µM	0.625	0.277
3.16 µM	0.661	0.287
10 µM	0.685	0.155
31.6 µM	0.449	-0.106

Conditions	GR50 [µM]	GRmin	drug GRADE
U2OS [3]	–	-0.311	–
U2OS [4]	–	–	57.3
U2OS [5]	0.436	–	–

O=C(c1cc(Cc2n[nH]c(=O)c3ccccc23)ccc1F)N1CCN(C(=O)C2CC2)CC1 [Olaparib]
Conditions	fractional viability, U2OS [1]	normalized growth rate inhibition value, U2OS [2]
0.00100578 µM	0.992	1.03
0.00317827 µM	0.988	0.94
0.0100433 µM	0.989	1.03
0.0317369 µM	0.992	1.02
0.100289 µM	0.99	0.964
0.316912 µM	0.989	0.956
1.00144 µM	0.987	0.922
3.16456 µM	0.982	0.85
10 µM	0.96	0.511

Conditions	drug GRADE
U2OS [4]	6.58

CC(=O)c1c(C)c2cnc(Nc3ccc(N4CCNCC4)cn3)nc2n(C2CCCC2)c1=O [Palbociclib]
Conditions	fractional viability, U2OS [1]	normalized growth rate inhibition value, U2OS [2]
0.000317827 µM	0.992	1.08
0.00100433 µM	0.992	0.975
0.00317369 µM	0.99	0.904
0.0100289 µM	0.989	0.841
0.0316912 µM	0.989	0.721
0.100144 µM	0.984	0.769
0.316456 µM	0.988	0.639
1 µM	0.987	0.525
3.16 µM	0.972	0.398

Conditions	GR50 [µM]	GRmin	drug GRADE
U2OS [3]	–	0.176	–
U2OS [4]	–	–	3.13
U2OS [5]	1.15	–	–
